How the values were obtained:
[1] = test system: 293T cells; experiment: Western blot of 293T cells treated with inhibitors; type: cell-based, human
[2] = test system: 293T cells; details: 30 min; cited from earlier work

COc1ccc(-c2ccc3c(N4CCOC[C@@H]4C)nc(N4CCOC[C@@H]4C)nc3n2)cc1CO [AZD8055]
phosphorylation of AKT (pAKT) ([1]; 3 and 16 h of treatment): decrease in pAKT at T308 and S473 | phosphorylation of S6 (pS6 levels) ([1]; 3 and 16 h of treatment): significant decrease in pS6 levels at both the S235 and S240 sites

CCc1cncnc1N1CCN(Cc2nc3ccc(C(F)(F)F)cc3[nH]2)CC1 [PF-4708671]
S6 phosphorylation [2]: significant reduction in S6 phosphorylation | phosphorylation of AKT (pAKT) ([1]; 3 and 16 h of treatment): no effect on the phosphorylation of AKT | phosphorylation of S6 ([1]; 3 h time point): modest decrease in phosphorylation of S6 | phosphorylation of S6 ([1]; 16 h time point): returned to near basal levels

From paper PMC4289024 (Journal of Medicinal Chemistry, 2014)
